Assay results published in article PMC4581228, “Membrane Affinity of Platensimycin and Its Dialkylamine Analogs” (International Journal of Molecular Sciences, 2015).

Tests used:
[1] = system: A98S MscS in the cytoplasmic membrane of E. coli; assay: Patch-clamp of A98S MscS in excised spheroplast patches (activation midpoint shift); conditions: A98S MscS, cytoplasmic addition of 0.6 mM, six independent patches
Method: A pB10b vector was used to house and express the mscS gene in the triple-knockout E. coli strain MJF465 (mscS^−, mscL^−, mscK^−). The A98S MscS mutant, generated and partially characterized previously, was chosen for its higher sensitivity to inner leaflet drug partitioning.
Spheroplasts were generated as described previously. The experimental bath solution contained 400 mM sucrose, 200 mM KCl, 50 mM MgCl2, 5 mM CaCl2, and 5 mM HEPES and was titrated to pH 7.4 with KOH. Membrane patches were obtained on borosilicate glass pipettes and recorded at 30 mV pipette voltage set by a microelectrode amplifier. The midpoint of activation for channels in each patch was determined at two-minute intervals for the duration of the experiment via a 1 s ramp of saturating pressure. Analogs of platensimycin were pre-diluted in either ethanol or bath solution and perfused into the bath to achieve the desired concentration; control injections of equivalent volumes of ethanol had no effect on the midpoint of activation. Negative pressure (suction) was applied with the HSPC-1 high speed pressure clamp apparatus from ALA Scientific. Programming of the pressure protocols and data analysis was performed with the PClamp10 suite (Axon Instr., Foster City, CA, USA). The principle of lateral pressure measurements using two experimental systems, lipid monolayers and patch-clamp, is illustrated in Figure 1.
Similarly, the bulk-membrane partitioning coefficient (Kmem) was estimated from the values of relative increase in MscS activation pressure midpoint (p0.5) measured in patch-clamp experiments at different concentrations of intercalating agents by linear fit of Δp0.5 as a function of log(Cd).

[2] = system: WT MscS in the cytoplasmic membrane of E. coli; assay: Patch-clamp of WT MscS in excised spheroplast patches (activation midpoint shift); conditions: cytoplasmic addition of 0.6 mM, six independent patches
Excerpt: We explored the A98S gain-of-function mutant of MscS and found it to be a more suitable sensor. In pressure ramp experiments this mutant activates earlier, but apparently has the same tension dependency of inactivation as WT [20]. […] The serine-for-alanine substitution hydrophilizes the outer portion of the hydrophobic pore. As a result, the remaining hydrophobic region is localized to the cytoplasmic portion of the pore, placing the gate more asymmetrically relative to the mid-plane of the bilayer. […] We tested this mutant against WT with a cytoplasmic addition of 0.6 mM paraben, which has been characterized previously. The typical activation curves (open probability vs. pipette pressure) measured with pipettes of equal size for the two channels are shown in Figure 2. Not only is the absolute shift of activating pressure (p0.5) greater for A98S, but the percentage of midpoint shift relative to the original midpoint averaged for six independent patches was 41% ± 6% for the mutant vs. 14% ± 4% for WT. […]
Spheroplasts were generated as described previously. […] Membrane patches were obtained on borosilicate glass pipettes and recorded at 30 mV pipette voltage set by a microelectrode amplifier. The midpoint of activation for channels in each patch was determined at two-minute intervals for the duration of the experiment via a 1 s ramp of saturating pressure. […]

**Q.** For `CCCCOC(=O)c1ccc(O)cc1` [paraben, butyl paraben, reference compound], which “Percentage of midpoint shift relative to the original midpoint” value [1] is on record?
**A.** 41% ± 6%

**Q.** What about the “Percentage of midpoint shift relative to the original midpoint” value [2] of the same compound?
**A.** 14% ± 4%
